Patent US20240366571A1, “MODULATORS OF SK4 POTASSIUM CHANNEL AND USES THEREOF” (Ramot at Tel-Aviv University Ltd., priority 2022, published 2024)
Entries after “also recorded” stand apart in the source; their conditions may differ. Like-named read-outs stand apart in the source and are kept apart here.

Assays:
[1] = target: T1, WT SK4 channel co-transfected with CaM (Homo sapiens, UniProt O15554); test: Whole-cell patch-clamp of WT SK4 channel co-transfected with WT CaM or CaM mutants; assay type: cell-based
T1 construct: expressed in transfected cells; host or cells: CHO cells
Protocol: (§1) Constructs: For CHO cell transfection, the following were cloned: human SK1, rat SK2, human SK3, and rat calmodulin into the pcDNA3 vector, human SK4 into pEGFP-C1 vector, and PIP4,5-kinase into an IRES-dsRed plasmid. The mutations were introduced using the PCR-based QuikChange™ site-directed mutagenesis (Stratagene®) and were verified by full sequencing of the entire plasmid vector.
(§2) Whole-cell patch-clamp recording: Voltage-clamp recordings were performed using the whole-cell configuration of the patch-clamp technique. Signals were amplified using an […] patch-clamp amplifier (Molecular Devices), sampled at 5 kHz and filtered at 2.4 kHz via a four pole Bessel low pass filter. Data were acquired using pClamp™ 10.5 software in conjunction with an Axon™ DigiData® 1440A interface (Molecular Devices). The patch pipettes were pulled from borosilicate glass (Harvard Apparatus) with a resistance of 3-5 megaohms (MΩ). The intracellular pipette solution contained 130 mM KCl, 5 mM EGTA, 10 mM HEPES, pH 7.3 (adjusted with KOH), and CaCl2 calculated for a final concentration of 1 μM free-Ca^2+, by MAXCHELATOR (WEBMAXC STANDARD) software, with sucrose added to adjust osmolarity to 290 mosM. The external solution (310 mosM) contained 140 mM NaCl, 4 mM KCl, 1.8 mM CaCl2, 1.2 mM MgCl2, 11 mM glucose, and 5.5 mM HEPES adjusted with NaOH to pH 7.3. CHO cells were held at −90 millivolt (mV) and SK4 K^+ currents were activated using a voltage ramp protocol from −100 mV to +60 mV for 150 milliseconds. Electrophysiological data analysis was performed using the Clampfit program (pClamp™ 10.5; Molecular Devices).
(§3) To examine ex-vivo the interactions between BA6b9 and the simulated residues seen in FIG. 5B, residues that are in atomic proximity and are expected to interact with BA6b9 were mutated. Such mutated residues were, for example, R191 and H192 of linker S4-S5, M72 and M76 of the CaM linker as well as L19, E22, Y179, S181, A184, Q187 and R189, which are more distant from BA6b9.

[2] = target: T2, human SK3 (Homo sapiens, UniProt Q9UGI6); test: Whole-cell patch-clamp of SK3 currents in CHO cells; assay type: cell-based; details: 20 μM
T2 construct: expressed in transfected cells; host or cells: CHO cells
Protocol: as §1
(§4) Cell Culture and Transfection: Chinese hamster ovary (CHO) cells were grown in Dulbecco's modified Eagle's medium supplemented with 2 millimolar (mM) glutamine, 10% fetal calf serum, and antibiotics. In brief, 40,000 cells seeded on poly-L-lysine-coated glass coverslips (13 millimeter (mm) in diameter) in a 24-multiwell plate were transfected with 0.5 microgram (μg) pEGFP-SK4/0.5 μg mutant SK4, 1.2 μg dsRed-PIP4,5-kinase or with 1 μg SK1/SK2/SK3 together with pIRES-CD8 (0.3 μg) as a marker for transfection. […]
(§5) Whole-cell patch-clamp recording: Voltage-clamp recordings were performed using the whole-cell configuration of the patch-clamp technique. […] The intracellular pipette solution contained 130 mM KCl, 5 mM EGTA, 10 mM HEPES, pH 7.3 (adjusted with KOH), and CaCl2 calculated for a final concentration of 1 μM free-Ca^2+, by MAXCHELATOR (WEBMAXC STANDARD) software, with sucrose added to adjust osmolarity to 290 mosM. […]

[3] = system: rat model of heart failure (HF) post-myocardial infarction (MI); test: Rat model of heart failure post-myocardial infarction; assay type: in vivo; details: vs vehicle
Protocol: […] Experimental setup and details are described, for example, in Murninkas et al. Am J Physiol-Heart Circul Physiol. (2021), 320, H713-H24.
Following electrode implantation and animal recovery, baseline EP (electrophysiological) measurements were performed followed by random division of the animals to treatment with the exemplary compound vs. treatment with vehicle.
Masson-trichrome staining: staining was performed according to a standard procedure, as described, for example, in N. Foot, Stain Technology (2009), Volume 8, 1933—Issue 3, 101-110.

[4] = target: T3, rat SK2 (Rattus norvegicus, UniProt P70604); test: Whole-cell patch-clamp of SK2 currents in CHO cells; assay type: cell-based; details: 20 μM
T3 construct: expressed in transfected cells; host or cells: CHO cells
Protocol: as §1, §4, §5

[5] = target: T4, SK4 channel mutants (Homo sapiens, UniProt O15554, L19W); test: Whole-cell patch-clamp of SK4 channel mutants; assay type: cell-based; details: read-out: inhibition of SK4 mutant L19W current
T4 construct: expressed in transfected cells; host or cells: CHO cells
Protocol: as §1, §2, §3

[6] = target: T5, SK4 channel mutants (Homo sapiens, UniProt O15554, R352Q); test: Whole-cell patch-clamp of SK4 channel mutants; assay type: cell-based; details: read-out: inhibition of SK4 mutant R352Q current
T5 construct: expressed in transfected cells; host or cells: CHO cells
Protocol: as §1, §2, §3

[7] = target: T6, SK4 channel mutants (Homo sapiens, UniProt O15554, E22A); test: Whole-cell patch-clamp of SK4 channel mutants; assay type: cell-based; details: read-out: inhibition of SK4 mutant E22A current
T6 construct: expressed in transfected cells; host or cells: CHO cells
Protocol: as §1, §2, §3

[8] = target: T7, SK4 channel mutants (Homo sapiens, UniProt O15554, R191A); test: Whole-cell patch-clamp of SK4 channel mutants; assay type: cell-based; details: read-out: inhibition of SK4 mutant R191A current
T7 construct: expressed in transfected cells; host or cells: CHO cells
Protocol: as §1, §2, §3

[9] = system: SK4 channel mutants; test: Whole-cell patch-clamp of SK4 channel mutants; assay type: cell-based, human; details: 20 μM
Protocol: as §1, §2, §3

[10] = target: T8, SK4 channel mutants (Homo sapiens, UniProt O15554, H192A); test: Whole-cell patch-clamp of SK4 channel mutants; assay type: cell-based; details: read-out: inhibition of SK4 mutant H192A current
T8 construct: expressed in transfected cells; host or cells: CHO cells
Protocol: as §1, §2, §3

[11] = target: T9, human SK4 (Homo sapiens, UniProt O15554); test: Whole-cell patch-clamp of WT SK4 K+ currents in transfected CHO cells; assay type: cell-based
T9 construct: expressed in transfected cells; host or cells: CHO cells
Protocol: as §1
Cell Culture and Transfection: Chinese hamster ovary (CHO) cells were grown in Dulbecco's modified Eagle's medium supplemented with 2 millimolar (mM) glutamine, 10% fetal calf serum, and antibiotics. In brief, 40,000 cells seeded on poly-L-lysine-coated glass coverslips (13 millimeter (mm) in diameter) in a 24-multiwell plate were transfected with 0.5 microgram (μg) pEGFP-SK4/0.5 μg mutant SK4, 1.2 μg dsRed-PIP4,5-kinase or with 1 μg SK1/SK2/SK3 together with pIRES-CD8 (0.3 μg) as a marker for transfection. Transfection was performed using TransIT-LT1 Transfection Reagent (Mirus Bio) according to the manufacturer's protocol. For electrophysiology, transfected cells were visualized approximately 40 hours after transfection with a Zeiss Axiovert 35 inverted florescence microscope.
as §2
Some of the compounds were tested by comparing trace of WT SK4 channel currents in the absence and presence of 20 μM of the tested compound.

[12] = 20 mg/kg daily for 2 weeks from one week post-MI

CCCCCCCn1c(=O)oc2ccccc21 [BA6b9, 3-heptylbenzo[d]oxazol-2(3H)-one]
modulation of WT SK4 co-transfected with CaM mutant M72A (representative trace) ([1]; 20 μM): not indicating modulation | inhibition at 20 µM ([1]; read-out: inhibition of WT SK4 co-transfected with CaM mutant M72A): 0% | inhibition at 20 µM ([1]; read-out: inhibition of WT SK4 co-transfected with CaM mutant M76A): 19% | inhibition at 20 µM ([1]; read-out: inhibition of WT SK4 co-transfected with WT CaM): 47% | SK3 activity in comparison with control [2]: 95% | SK3 drug-to-control current ratio [2]: 0.95 | AF induction [3, 12]: markedly attenuates | EF (ejection fraction) [3, 12]: does not affect | total AF duration [3, 12]: markedly attenuates | LA fibrosis ([3]; Masson-trichrome staining after post-MI treatment): reduction | LA smooth muscle actin (SMA) ([3]; after post-MI treatment): reduction | SK2 activity in comparison with control [4]: 134% | SK2 drug-to-control current ratio [4]: 1.34 | inhibition at 20 µM [5]: 46% | inhibition at 20 µM [6]: 31% | inhibition at 20 µM [7]: 56% | inhibition at 20 µM [8]: 30% | sensitivity of mutants R352Q, R191A, H192A to inhibition compared to WT SK4 [9]: significantly less sensitive | inhibition at 20 µM [10]: 16% | inhibition at 20 µM ([11]; CHO, 20 μM, whole-cell): 56% | SK4 K+ channel modulating activity ([11]; WT SK4 currents in absence and presence of 20 μM compound): inhibited; also recorded: Inhibitor
